Experimental data taken from PubChem BioAssay (NCI).
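Abbreviation: GI50, concentration required for 50% inhibition of growth. TGI: total growth inhibition.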

Key:
Assay in all cases: growth of human tumour cells (NCI), 384-well format
[1] = tested on: A549 NSCLC
[2] = tested on: COLO 205 colon
[3] = tested on: EKVX NSCLC
[4] = tested on: HT29 colon
[5] = tested on: MDA-MB-468 breast
[6] = tested on: NCI-H322M lung
[7] = tested on: NCI-H460 NSCLC
[8] = tested on: NCI/ADR-RES ovarian
[9] = tested on: OVCAR-4 ovarian
[10] = tested on: SK-MEL-2 melanoma
[11] = tested on: SR leukemia
[12] = tested on: UO-31 renal

Nc1ncn(C2OC(CO)C(O)C2O)c(=O)n1 (centres undefined)
GI50 [1]: 3.24 µM
TGI [1]: > 38 µM
GI50 [2]: 1.41 µM
TGI [2]: 10.9 µM
GI50 [3]: 19.5 µM
TGI [3]: > 75.8 µM
GI50 [4]: 3.52 µM
TGI [4]: 30.1 µM
GI50 [5]: 0.529 µM
TGI [5]: 1.41 µM
GI50 [6]: 1.52 µM
TGI [6]: 25.7 µM
GI50 [7]: 0.239 µM
TGI [7]: 1.27 µM
GI50 [8]: 4.25 µM
TGI [8]: > 35.6 µM
GI50 [9]: 3.33 µM
TGI [9]: 23.8 µM
GI50 [10]: 0.911 µM
TGI [10]: 2.85 µM
GI50 [11]: 0.165 µM
TGI [11]: 0.423 µM
GI50 [12]: 2.5 µM
TGI [12]: 15.1 µM
